From PubChem BioAssay (NCI)
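GI50 marks 50% less growth. The concentration for full growth arrest is given as TGI.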

Legend:
Experiment in all cases: NCI tumour cell line growth inhibition, 384-well format
786-0 renal = tested on: 786-0 renal
A498 renal = tested on: A498 renal
A549 NSCLC = tested on: A549 NSCLC
ACHN renal = tested on: ACHN renal
BT-549 breast = tested on: BT-549 breast
CAKI-1 renal = tested on: CAKI-1 renal
COLO 205 colon = tested on: COLO 205 colon
DU-145 prostate = tested on: DU-145 prostate
EKVX NSCLC = tested on: EKVX NSCLC
HCT-116 colon = tested on: HCT-116 colon
HCT-15 colon = tested on: HCT-15 colon
HL-60(TB) leukemia = tested on: HL-60(TB) leukemia
HOP-62 NSCLC = tested on: HOP-62 NSCLC
HOP-92 NSCLC = tested on: HOP-92 NSCLC
HS 578T breast = tested on: HS 578T breast
HT29 colon = tested on: HT29 colon
IGROV1 ovarian = tested on: IGROV1 ovarian
K-562 leukemia = tested on: K-562 leukemia
KM12 colon = tested on: KM12 colon
M14 melanoma = tested on: M14 melanoma
MALME-3M melanoma = tested on: MALME-3M melanoma
MCF7 breast = tested on: MCF7 breast
MDA-MB-231 breast = tested on: MDA-MB-231 breast
MDA-MB-435 melanoma = tested on: MDA-MB-435 melanoma
MDA-MB-468 breast = tested on: MDA-MB-468 breast
MOLT-4 leukemia = tested on: MOLT-4 leukemia
NCI-H226 lung = tested on: NCI-H226 lung
NCI-H23 lung = tested on: NCI-H23 lung
NCI-H322M lung = tested on: NCI-H322M lung
NCI-H460 NSCLC = tested on: NCI-H460 NSCLC
NCI-H522 lung = tested on: NCI-H522 lung
OVCAR-3 ovarian = tested on: OVCAR-3 ovarian
OVCAR-4 ovarian = tested on: OVCAR-4 ovarian
OVCAR-5 ovarian = tested on: OVCAR-5 ovarian
OVCAR-8 ovarian = tested on: OVCAR-8 ovarian
PC-3 prostate = tested on: PC-3 prostate
RXF 393 renal = tested on: RXF 393 renal
SF-268 CNS = tested on: SF-268 CNS
SF-295 CNS = tested on: SF-295 CNS
SF-539 CNS = tested on: SF-539 CNS
SK-MEL-2 melanoma = tested on: SK-MEL-2 melanoma
SK-MEL-28 melanoma = tested on: SK-MEL-28 melanoma
SK-MEL-5 melanoma = tested on: SK-MEL-5 melanoma
SK-OV-3 ovarian = tested on: SK-OV-3 ovarian
SN12C renal = tested on: SN12C renal
SNB-19 CNS = tested on: SNB-19 CNS
SNB-75 CNS = tested on: SNB-75 CNS
SR leukemia = tested on: SR leukemia
SW-620 colon = tested on: SW-620 colon
T-47D breast = tested on: T-47D breast
TK-10 renal = tested on: TK-10 renal
U251 glioblastoma = tested on: U251 glioblastoma
UACC-257 melanoma = tested on: UACC-257 melanoma
UACC-62 melanoma = tested on: UACC-62 melanoma
UO-31 renal = tested on: UO-31 renal

Structure (SMILES): Cc1sc2c(c1C)C(c1ccc(Cl)cc1)=N[C@@H](CC(=O)NCCCN1CCN(C)CC1)c1nnc(C)n1-2
- GI50 ([…]-0 renal): 1790 nM
- TGI (786-0 renal): > 100000 nM
- GI50 (A498 renal): 3310 nM
- TGI (A498 renal): > 100000 nM
- GI50 (A549 NSCLC): 854 nM
- TGI (A549 NSCLC): > 100000 nM
- GI50 (ACHN renal): 10200 nM
- TGI (ACHN renal): > 100000 nM
- GI50 (BT-549 breast): 238 nM
- TGI (BT-549 breast): 11400 nM
- GI50 (CAKI-1 renal): 677 nM
- TGI (CAKI-1 renal): > 100000 nM
- GI50 (COLO 205 colon): 257 nM
- TGI (COLO 205 colon): > 100000 nM
- GI50 (DU-145 prostate): 7160 nM
- TGI (DU-145 prostate): > 100000 nM
- GI50 (EKVX NSCLC): 31500 nM
- TGI (EKVX NSCLC): > 100000 nM
- GI50 (HCT-116 colon): 407 nM
- TGI (HCT-116 colon): > 100000 nM
- GI50 (HCT-15 colon): 13000 nM
- TGI (HCT-15 colon): > 100000 nM
- GI50 (HL-60(TB) leukemia): 12.8 nM
- TGI (HL-60(TB) leukemia): 27 nM
- GI50 (HOP-62 NSCLC): 448 nM
- TGI (HOP-62 NSCLC): > 100000 nM
- GI50 (HOP-92 NSCLC): 486 nM
- TGI (HOP-92 NSCLC): > 100000 nM
- GI50 (HS 578T breast): 38.1 nM
- TGI (HS 578T breast): 11400 nM
- GI50 (HT29 colon): 143 nM
- TGI (HT29 colon): > 100000 nM
- GI50 (IGROV1 ovarian): 277 nM
- TGI (IGROV1 ovarian): > 100000 nM
- GI50 (K-562 leukemia): 154 nM
- TGI (K-562 leukemia): > 100000 nM
- GI50 (KM12 colon): 56000 nM
- TGI (KM12 colon): > 100000 nM
- GI50 (M14 melanoma): 404 nM
- TGI (M14 melanoma): > 100000 nM
- GI50 (MALME-3M melanoma): 330 nM
- TGI (MALME-3M melanoma): 26400 nM
- GI50 (MCF7 breast): 24.2 nM
- TGI (MCF7 breast): 4880 nM
- GI50 (MDA-MB-231 breast): 67.4 nM
- TGI (MDA-MB-231 breast): > 100000 nM
- GI50 (MDA-MB-435 melanoma): 1330 nM
- TGI (MDA-MB-435 melanoma): > 100000 nM
- GI50 (MDA-MB-468 breast): 48.4 nM
- TGI (MDA-MB-468 breast): 729 nM
- GI50 (MOLT-4 leukemia): 105 nM
- TGI (MOLT-4 leukemia): 10600 nM
- GI50 (NCI-H226 lung): 1520 nM
- TGI (NCI-H226 lung): > 100000 nM
- GI50 (NCI-H23 lung): 308 nM
- TGI (NCI-H23 lung): 56900 nM
- GI50 (NCI-H322M lung): 226 nM
- TGI (NCI-H322M lung): > 100000 nM
- GI50 (NCI-H460 NSCLC): 453 nM
- TGI (NCI-H460 NSCLC): > 100000 nM
- GI50 (NCI-H522 lung): 31.6 nM
- TGI (NCI-H522 lung): 352 nM
- GI50 (OVCAR-3 ovarian): 148 nM
- TGI (OVCAR-3 ovarian): > 100000 nM
- GI50 (OVCAR-4 ovarian): 148 nM
- TGI (OVCAR-4 ovarian): 1630 nM
- GI50 (OVCAR-5 ovarian): 666 nM
- TGI (OVCAR-5 ovarian): > 100000 nM
- GI50 (OVCAR-8 ovarian): 1210 nM
- TGI (OVCAR-8 ovarian): > 100000 nM
- GI50 (PC-3 prostate): 583 nM
- TGI (PC-3 prostate): > 100000 nM
- GI50 (RXF 393 renal): 338 nM
- TGI (RXF 393 renal): 2900 nM
- GI50 (SF-268 CNS): 12000 nM
- TGI (SF-268 CNS): > 100000 nM
- GI50 (SF-295 CNS): 7300 nM
- TGI (SF-295 CNS): > 100000 nM
- GI50 (SF-539 CNS): 312 nM
- TGI (SF-539 CNS): 26900 nM
- GI50 (SK-MEL-2 melanoma): 36.6 nM
- TGI (SK-MEL-2 melanoma): 24500 nM
- GI50 (SK-MEL-28 melanoma): 10100 nM
- TGI (SK-MEL-28 melanoma): > 100000 nM
- GI50 (SK-MEL-5 melanoma): 462 nM
- TGI (SK-MEL-5 melanoma): 37900 nM
- GI50 (SK-OV-3 ovarian): 208 nM
- TGI (SK-OV-3 ovarian): > 100000 nM
- GI50 (SN12C renal): > 100000 nM
- TGI (SN12C renal): > 100000 nM
- GI50 (SNB-19 CNS): > 100000 nM
- TGI (SNB-19 CNS): > 100000 nM
- GI50 (SNB-75 CNS): 443 nM
- TGI (SNB-75 CNS): > 100000 nM
- GI50 (SR leukemia): 71.1 nM
- TGI (SR leukemia): > 100000 nM
- GI50 (SW-620 colon): 23300 nM
- TGI (SW-620 colon): > 100000 nM
- GI50 (T-47D breast): 529 nM
- TGI (T-47D breast): 71600 nM
- GI50 (TK-10 renal): 1190 nM
- TGI (TK-10 renal): > 100000 nM
- GI50 (U251 glioblastoma): 2490 nM
- TGI (U251 glioblastoma): > 100000 nM
- GI50 (UACC-257 melanoma): 985 nM
- TGI (UACC-257 melanoma): 21900 nM
- GI50 (UACC-62 melanoma): 53.8 nM
- TGI (UACC-62 melanoma): > 100000 nM
- GI50 (UO-31 renal): 30200 nM
- TGI (UO-31 renal): > 100000 nM
